The target in test [1] is T1, AT1 receptor of angiotensin II (Rattus norvegicus, UniProt P25095).
T1 construct: A fresh membrane preparation obtained from rat's liver is used; from tissue; host or cells: rat liver membranes
T1 sequence (P25095 1-359): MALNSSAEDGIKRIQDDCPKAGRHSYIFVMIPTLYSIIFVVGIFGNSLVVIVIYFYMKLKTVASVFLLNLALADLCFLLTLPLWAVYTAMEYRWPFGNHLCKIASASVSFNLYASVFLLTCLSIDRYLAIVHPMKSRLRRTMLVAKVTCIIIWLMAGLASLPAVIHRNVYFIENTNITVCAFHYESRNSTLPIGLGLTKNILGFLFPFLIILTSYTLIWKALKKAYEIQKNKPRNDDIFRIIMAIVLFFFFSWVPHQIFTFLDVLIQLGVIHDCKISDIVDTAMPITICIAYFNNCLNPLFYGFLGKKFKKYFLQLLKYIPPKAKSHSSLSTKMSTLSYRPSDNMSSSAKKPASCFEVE
Description: Test on the AT1 receptor of angiotensin II (displacement of 125I angiotensin II, rat liver membranes). It counts as binding. Conditions: 25° C., 150 minutes, pH 7.4. Here is the method: 1--Test on the AT1 receptor of angiotensin II
A fresh membrane preparation obtained from rat's liver is used. The tissue is ground up in a polytron in a 50 mM Tris buffer pH 7.4, the grinding is followed by 3 centrifugations at 30,000 g for 15 minutes with intermediate take up of the pellets in the Tris buffer pH 7.4.
The last pellets are suspended in an incubation buffer (20 mM Tris, 135 mM NaCl, 10 mM KCl, 5 mM glucose, 135 mM MgCl2, 0.3 mM PMSF, 0.1 mM bacitracin, 0.1% lysozyme).
1 ml aliquoted fractions are distributed in glass tubes and ^125 I angiotensin II (25,000 DPM/tube) and the product to be studied are added. (The product is first tested at 3×10^-5 M three times). When the tested product displaces more than 50% of the radioactivity specifically bound to the receptor, it is tested again according to a range of 7 concentrations in order to determine the concentration which inhibits by 50% the radioactivity specifically bound to the receptor. In this way the 50% inhibitory concentration is determined).
The non-specific bond is determined by the addition of the product of Example 94 of the European Patent 0,253,310, at 10^-5 M (three times). After incubation at 25° C. for 150 minutes, placing in a water bath at 0° C. for 5 minutes, filteration under vacuum and rinsing with Tris buffer pH 7.4, the radioactivity is counted in the presence of a scintillating solid.
(§1) The result is expressed directly as the 50% inhibitory concentration (IC50), that is to say as the concentration of product studied, expressed in nM, necessary to displace 50% of the specific radioactivity fixed to the receptor studied.
(Loss of bound radioactivity is the signal in a displacement assay; it reports binding, not function.)

Test [2] deals with T2, AT2 receptor of angiotensin II (Oryctolagus cuniculus, UniProt G1T351).
T2 construct: A fresh membrane preparation obtained from rabbit's uterus is used; from tissue; host or cells: rabbit uterus membranes (estradiol-pretreated, homogenate preincubated with 10 mM dithiothreitol)
T2 sequence (G1T351 1-363): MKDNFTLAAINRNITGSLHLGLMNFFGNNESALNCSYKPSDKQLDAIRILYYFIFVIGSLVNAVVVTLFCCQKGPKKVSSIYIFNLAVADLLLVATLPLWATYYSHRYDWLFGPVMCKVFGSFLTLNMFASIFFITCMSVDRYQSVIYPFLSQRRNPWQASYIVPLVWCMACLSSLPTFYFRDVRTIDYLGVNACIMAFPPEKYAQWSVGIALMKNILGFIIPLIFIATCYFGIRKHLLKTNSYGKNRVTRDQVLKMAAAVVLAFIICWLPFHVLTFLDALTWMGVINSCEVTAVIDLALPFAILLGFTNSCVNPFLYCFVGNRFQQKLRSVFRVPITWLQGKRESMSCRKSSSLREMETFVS
Description: Test on the AT2 receptor of angiotensin II (displacement of 125I angiotensin II, rabbit uterus membranes). Conditions: rabbit uterus membranes (estradiol pre-treated), 10 mM dithiothreitol preincubation, 25° C., 150 minutes, pH 7.4. The format is binding. Here is the method: 2) Test on the AT2 receptor of angiotensin II
A fresh membrane preparation obtained from rabbit's uterus is used, pre-treated 4 days beforehand with 50 ug of estradiol administered by percutaneous route. The tissue is ground up in a polytron in a 50 mM Tris buffer pH 7.4 and the grinding is followed by 3 centrifugations at 30,000 g for 15 minutes with intermediate take up of the pellets in the Tris buffer pH 7.4.
The last pellets are suspended in an incubation buffer (20 mM Tris, 135 mM NaCl, 10 mM KCl, 5 mM glucose, 10 mM MgCl2 6H2 O), 0.3 mM PMSF, 0.1 mM bacitracin, 0.1 o/oo lysozyme, pH 7.4).
The homogenate obtained is preincubated for 20 minutes at 25° C. in the presence of 10 mM dithiothreitol, then brought back to 0°-4° C.
1 ml aliquoted fractions are distributed in glass tubes and ^125 I angiotensin II (25,000 DPM/tube) and the product to be studied are added. The product is first tested at 3×10^-5 M three times. When the tested product displaces more than 50% of the radioactivity specifically bound to the receptor, it is tested again according to a range of 7 concentrations in order to determine the concentration which inhibits by 50% the radioactivity specifically bound to the receptor. In this way the 50% inhibitory concentration is determined.
The […] is determined by the addition of EXP 655 (=PD 123-177 from Warner-Lambert) at 10^-5 M (in triplicate). After incubation at 25° C. for 150 minutes, placing in a water bath at 0° C. for 5 minutes, filteration under vacuum and rinsing with Tris buffer pH 7.4, the radioactivity is counted in the presence of a scintillating solid.
as §1

The subject of the next test is angiotensin II. Description: Test for antagonistic activity of angiotensin II in the demedullated rat. Conditions: angiotensin II 0.75 micrograms/kg, read-out: ID50 (50% inhibitory dose of the pressure effect of angiotensin II). It counts as in vivo, rat (male Sprague Dawley).
The mark [3] stands for this setting: IV, injected 5 minutes before angiotensin II.

Like-named read-outs stand apart in the source and are kept apart here.

For `CCCc1nc(SC)c(C(=O)C[S+]([O-])c2ccccc2)n1Cc1ccc(-c2ccccc2S(=O)(=O)NC(=O)NCC2CCCC2)cc1` (racemic) [Example 46, (±) N-(((cyclopentylmethyl)amino)carbonyl) 4'-((4-(methylthio) 5-((phenylsulphinyl)acetyl) 2-propyl 1H-imidazol 1-yl)methyl) (1,1'-biphenyl) 2-sulphonamide], the IC50 amounted to 0.4 nM in test [1] and 2.5 nM in test [2].
Consider `CCCc1nc(SC)c(C(=O)C[S+]([O-])c2ccccc2)n1Cc1ccc(-c2ccccc2S(=O)(=O)NC(=O)CCC2CCCC2)cc1` (racemic) [Example 47, (±) N-(4'-((4-(methylthio) 5-((phenylsulphinyl)acetyl) 2-propyl 1H-imidazol 1-yl)methyl) (1,1'-biphenyl-2yl)sulphonyl) cyclopentanepropanamide], for which the figures for the IC50 in test [1] and in test [2] were 0.09 nM and 2.09 nM, respectively.
With `CCCCc1nc(SC)c(C(=O)C(=O)O)n1Cc1ccc(-c2ccccc2S(=O)(=O)NC(=O)NCC2CCCCC2)cc1` [Example 7, 2-butyl 1-((2'-(((((cyclohexylmethyl)amino)carbonyl)amino)sulphonyl) (1,1'-biphenyl) 4-yl)methyl) 4-methylthio alpha oxo-1H-imidazole 5-acetic acid], the IC50 in test [1] came out at 0.7 nM; in test [2] it was 6.8 nM.
`CCCCc1nc(SC)c(C(=O)C[S+](C)[O-])n1Cc1ccc(-c2ccccc2S(=O)(=O)NC(=O)NCc2ccccc2)cc1` (stereo not drawn) [Example 9, 4'-((2-butyl 5-(2-(methylsulphinyl)acetyl) 4-(methylthio) 1H-imidazol 1-yl)methyl) N-(((phenylmethyl)amino)carbonyl) (1,1'-biphenyl) 2-sulphonamide]: the IC50 came out at 0.3 nM in test [1] and 15 nM in test [2]. The values for the ED50 in the test with angiotensin II (setting [3]) and in the test on angiotensin II (PO) were 0.06 mg/kg and 0.7 mg/kg, respectively.
Regarding `CCCCc1nc(SC)c(C(=O)C(=O)O)n1Cc1ccc(-c2ccccc2S(=O)(=O)NC(=O)NCc2ccccc2)cc1` [Example 10, 2-butyl 4-(methylthio) alpha oxo 1-((2'-(((((phenylmethyl)amino)carbonyl)amino)sulphonyl) (1,1'-biphenyl) 4-yl)methyl) 1-H-imidazole 5-acetic acid], the figures for the IC50 in test [1] and in test [2] were 0.18 nM and 38 nM, respectively.
For `CCCCc1nc(SC)c(C(=O)C(=O)NCc2ccccc2)n1Cc1ccc(-c2ccccc2S(=O)(=O)NC(=O)NCc2ccccc2)cc1` [Example 11, 2-butyl 4-(methylthio) alpha oxo N-(phenylmethyl) 1-((2'-(((((phenylmethyl)amino)carbonyl)amino)sulphonyl) (1,1'-biphenyl) 4-yl)methyl) 1-H-imidazole 5-acetamide], in that order: 0.6 nM and 53 nM.
For `CCCCc1nc(SC)c(C(=O)CC(=O)OCC)n1Cc1ccc(-c2ccccc2S(=O)(=O)NC(=O)NCCC)cc1` [Example 12], in that order: 0.2 nM and 83 nM.
For `CCCCc1nc(SC)c(C(=O)Nc2nnn[nH]2)n1Cc1ccc(-c2ccccc2S(=O)(=O)NC(=O)NCCC)cc1` [Example 13], the IC50 was determined as 0.24 nM in test [1] and 24 nM in test [2]. In the test with angiotensin II (setting [3]), the ED50 came to 0.12 mg/kg.
Turning to `CCCc1nc(SC)c(C(=O)Nc2nn[nH]n2)n1Cc1ccc(-c2ccccc2S(=O)(=O)NC(=O)NCc2ccccc2)cc1` [Example 15, 4-(methylthio) 1-((2'-(((((phenylmethyl)amino)carbonyl)amino)sulphonyl) (1,1'-biphenyl) 4-yl)methyl) 2-propyl N-(2H-tetrazol 5-yl) 1H-imidazole 5-carboxamide], the IC50 came out at 0.2 nM in test [1] and 2 nM in test [2].
Turning to `CCCc1nc(SC)c(C(=O)C[S+]([O-])c2ccccc2)n1Cc1ccc(-c2ccccc2S(=O)(=O)NC(=O)NCc2ccccc2)cc1` (stereo not drawn) [Example 20, 4'-((4-(methylthio) 5-(2-(phenylsulphinyl)acetyl) 2-propyl 1H-imidazol-1-yl)methyl) N-(((phenylmethyl)amino)carbonyl) (1,1'-biphenyl) 2-sulphonamide], the IC50 in test [1] turned out to be 0.08 nM; in test [2], 0.8 nM. Besides, the ED50 is 0.04 mg/kg in the test on angiotensin II (setting [3]) and 0.8 mg/kg with angiotensin II (PO).
For `CCCCc1nc(SC)c(C(=O)CC(=O)OCC)n1Cc1ccc(-c2ccccc2S(=O)(=O)NC(=O)NCc2ccccc2)cc1` [Example 21, ethyl 2-butyl 4-(methylthio) beta-oxo-1-((2'-(((((phenylmethyl)amino)carbonyl)amino)sulphonyl) (1,1'-biphenyl) 4-yl)methyl) 1H-imidazole 5-propanoate], the IC50 amounted to 0.08 nM in test [1] and 1 nM in test [2]. The ED50 with angiotensin II (setting [3]) was 0.08 mg/kg.
As to `CCCc1nc(SC)c(C(=O)C[S+]([O-])c2ccccc2)n1Cc1ccc(-c2ccccc2S(=O)(=O)NC(=O)NCc2cccs2)cc1` (stereo not drawn) [Example 34, 4'-((4-(methylthio) 5-((phenylsulphinyl)acetyl) 2-propyl 1H-imidazol-1-yl)methyl) N-(((2-thienylmethyl)amino)carbonyl) (1,1'-biphenyl) 2-sulphonamide], the IC50 is 0.05 nM in test [1] and 2.2 nM in test [2].

As usually defined, the IC50 is the point on the concentration scale where inhibition reaches its midpoint.
